The results in this text go back to US7569578B2, “Heterocyclic anti-migraine agents” (Bristol-Meyers Squibb Company, priority 2003, dated 2009).

This assay deals with T1, Human CGRP1 Receptor (Homo sapiens, UniProt O60894+Q16602).
T1 construct: endogenous in cells; host or cells: SK-N-MC cells (membrane homogenate)
Put plainly: CGRP Binding Assay ([125I]-CGRP radioligand displacement, SK-N-MC membrane homogenate). The following applies: [125I]-CGRP displacement, SK-N-MC homogenate, room temperature 2 h; read-out: Human CGRP1 Receptor IC50.

Some results are limits rather than exact numbers.

T1 sequence (Q16602 23-461): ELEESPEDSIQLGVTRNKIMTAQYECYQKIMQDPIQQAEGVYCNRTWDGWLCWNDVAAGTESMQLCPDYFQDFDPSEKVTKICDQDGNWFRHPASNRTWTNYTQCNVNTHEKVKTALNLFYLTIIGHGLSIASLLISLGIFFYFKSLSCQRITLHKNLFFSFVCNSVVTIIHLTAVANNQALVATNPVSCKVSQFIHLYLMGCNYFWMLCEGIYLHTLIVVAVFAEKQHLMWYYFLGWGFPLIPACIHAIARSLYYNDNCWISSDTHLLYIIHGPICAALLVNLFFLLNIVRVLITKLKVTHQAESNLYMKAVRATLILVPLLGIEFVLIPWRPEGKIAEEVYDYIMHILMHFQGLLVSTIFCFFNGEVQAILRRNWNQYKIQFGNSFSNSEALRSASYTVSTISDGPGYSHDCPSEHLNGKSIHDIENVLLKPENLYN
T1 sequence (O60894 27-148): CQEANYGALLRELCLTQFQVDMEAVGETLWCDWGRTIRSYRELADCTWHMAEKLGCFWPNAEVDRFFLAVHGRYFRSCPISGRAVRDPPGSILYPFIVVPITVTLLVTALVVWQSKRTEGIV

With `Cc1cc(C[C@@H](OC(=O)N2CCC(c3cc4ccccc4[nH]c3=O)CC2)c2nccn2Cc2cc(F)cc(F)c2)cc2cn[nH]c12` [Example 78, (R)-1-(1-(3,5-difluorobenzyl)-1H-imidazol-2-yl)-2-(7-methyl-1H-indazol-5-yl)ethyl 4-(2-oxo-1,2-dihydroquinolin-3-yl)piperidine-1-carboxylate], the IC50 is under 10 nM. `Cc1cc(C[C@@H](NC(=O)N2CCC(N3Cc4ccccc4NC3=O)CC2)c2ncc3ccccn23)cc2cn[nH]c12` [Example 85, (R)-N-(1-(H-Imidazo[1,5-a]pyridin-3-yl)-2-(7-methyl-1H-indazol-5-yl)ethyl)-4-(2-oxo-1,2-dihydroquinazolin-3(4H)-yl)piperidine-1-carboxamide]: the half-inhibitory concentration (IC50) is under 10 nM. For `CC1=CC(CC(CC(=O)N2CCC(N3Cc4ccccc4NC3=O)CC2)c2nccn2Cc2ccc(C(C)(C)C)cc2)=CC2C=NNC12` (stereo not drawn) [Example 95, 3-(1-(3-(1-(4-tert-Butylbenzyl)-1H-imidazol-2-yl)-4-(7-methyl-3a,7a-dihydro-1H-indazol-5-yl)butanoyl)piperidin-4-yl)-3,4-dihydroquinazolin-2(1H)-one] the value was under 10 nM. For the compound `CC1=CC(CC(CC(=O)N2CCC(N3Cc4cccc(F)c4NC3=O)CC2)c2nccn2Cc2ccc(C(C)(C)C)cc2)=CC2C=NNC12` (stereo not drawn) [Example 96, 3-(1-(3-(1-(4-tert-Butylbenzyl)-1H-imidazol-2-yl)-4-(7-methyl-3a,7a-dihydro-1H-indazol-5-yl)butanoyl)piperidin-4-yl)-8-fluoro-3,4-dihydroquinazolin-2(1H)-one], the half-maximal inhibitory concentration (IC50) was under 10 nM.

On to `CC1=CC(CC(CC(=O)N2CCC(N3Cc4ccccc4NC3=O)CC2)c2nccn2Cc2ccncc2)=CC2C=NNC12` (stereo not drawn) [Example 97, 3-(1-(4-(7-Methyl-3a,7a-dihydro-1H-indazol-5-yl)-3-(1-(pyridin-4-ylmethyl)-1H-imidazol-2-yl)butanoyl)piperidin-4-yl)-3,4-dihydroquinazolin-2(1H)-one], for which the IC50 was under 10 nM. As to `CC1=CC(CC(CC(=O)N2CCC(N3Cc4ccccc4NC3=O)CC2)c2nc3ccccc3[nH]2)=CC2C=NNC12` (stereo not drawn) [Example 98, 3-(1-(3-(1H-Benzo[d]imidazol-2-yl)-4-(7-methyl-3a,7a-dihydro-1H-indazol-5-yl)butanoyl)piperidin-4-yl)-3,4-dihydroquinazolin-2(1H)-one], the IC50 was under 10 nM.

`CCn1c(C(CC(=O)N2CCC(N3Cc4ccccc4NC3=O)CC2)CC2=CC3C=NNC3C(C)=C2)nc2ccccc21` (stereo not drawn) [Example 99, 3-(1-(3-(1-Ethyl-1H-benzo [d]imidazol-2-yl)-4-(7-methyl-3a,7a-dihydro-1H-indazol-5-yl)butanoyl)piperidin-4-yl)-3,4-dihydroquinazolin-2(1H)-one]: the IC50 is under 10 nM. In the case of `Cc1cc(C[C@@H](OC(=O)N2CCC(c3cc4ccccc4[nH]c3=O)CC2)c2nc(-c3ccc(F)cc3)no2)cc2cn[nH]c12` [Example 100, (R)-1-(3-(4-Fluorophenyl)-1,2,4-oxadiazol-5-yl)-2-(7-methyl-1H-indazol-5-yl)ethyl 4-(2-oxo-1,2-dihydroquinolin-3-yl)piperidine-1-carboxylate], the IC50 fell in the range of 100 to 1000 nM. For `Cc1cc(C[C@@H](OC(=O)N2CCC(N3Cc4ccccc4NC3=O)CC2)c2nc(-c3ccncc3)no2)cc2cn[nH]c12` [Example 101, (R)-2-(7-Methyl-1H-indazol-5-yl)-1-(3-(pyridin-4-yl)-1,2,4-oxadiazol-5-yl)ethyl 4-(2-oxo-1,2-dihydroquinazolin-3(4H)-yl)piperidine-1-carboxylate] the value was 10 to 100 nM. As for `Cc1cc(C[C@@H](OC(=O)N2CCC(c3cc4ccccc4[nH]c3=O)CC2)c2nc(-c3cccnc3)no2)cc2cn[nH]c12` [Example 102, (R)-2-(7-Methyl-1H-indazol-5-yl)-1-(3-(pyridin-3-yl)-1,2,4-oxadiazol-5-yl)ethyl 4-(2-oxo-1,2-dihydroquinolin-3-yl)piperidine-1-carboxylate], the IC50 was in the range of 10 to 100 nM.

Turning to `CCOC(=O)c1noc([C@@H](Cc2cc(C)c3[nH]ncc3c2)OC(=O)N2CCC(c3cc4ccccc4[nH]c3=O)CC2)n1` [Example 103, (R)-1-(3-(Ethoxycarbonyl)-1,2,4-oxadiazol-5-yl)-2-(7-methyl-1H-indazol-5-yl)ethyl 4-(2-oxo-1,2-dihydroquinolin-3-yl)piperidine-1-carboxylate], the 50% inhibitory concentration (IC50) was 10 to 100 nM.

Take “(±)-4-(2-Oxo-1,4-dihydro-2H-quinazolin-3-yl)-piperidine-1-carboxylic acid [2-(7-ethyl-3-methyl-1H-indazol-5-yl)-1-pyridin-4-yl methyl-1H-tetrazol-5-yl)-ethyl]-amide [Example 19]”: the half-inhibitory concentration (IC50) was under 10 nM.
